From PMC2568900 (Biochemistry, 2008)
Entries after “also recorded” stand apart in the source; their conditions may differ.

Legend:
[1] = biological target: T1, PDHK2-Y320F (Rattus norvegicus, UniProt Q64536, Y328F); test: ATP, ADP and DCA binding by quenching of intrinsic tryptophan fluorescence; settings: for Qmax: quenching caused by the varied ligand
[2] = system: PDHK2-Y320F bound to L2; test: GST-L2 pull-down; assay type: binding, rat; settings: for effect on amount of kinase bound to L2: nucleotide 0.5 mM
[3] = biological target: PDHK2-wt (Rattus norvegicus, UniProt Q64536); test: ATP, ADP and DCA binding by quenching of intrinsic tryptophan fluorescence
[4] = biological target: L2 binding to PDHK2-N247Q (Rattus norvegicus, UniProt Q64536, N255Q); test: GST-L2 pull-down; settings: PDHK2-N247Q (cannot bind nucleotides); nucleotides 10 mM each
[5] = biological target: T2, PDHK2-T302A (Rattus norvegicus, UniProt Q64536, T310A); test: Isothermal titration calorimetry of L2 binding; settings: ITC, 10 mM ATP
[6] = biological target: T2, PDHK2-T302A; test: ATP, ADP and DCA binding by quenching of intrinsic tryptophan fluorescence
[7] = biological target: PDHK2-R250A (Rattus norvegicus, UniProt Q64536, R258A); test: as above
[8] = biological target: T3, wild-type PDHK2 (Rattus norvegicus, UniProt Q64536); test: biochemical
[9] = biological target: T1, PDHK2-Y320F; test: Kinase activity assay; assay type: biochemical; settings: standard phosphorylation assay
[10] = biological target: T3, wild-type PDHK2; settings: control, wide range of concentrations
[11] = PDHK2-wt, fixed ligand DCA (0.5 mM)
[12] = PDHK2-wt, no fixed ligand, 25 °C

For `Nc1ncnc2c1ncn2[C@@H]1O[C@H](COP(=O)(O)OP(=O)(O)O)[C@@H](O)[C@H]1O` [ADP], the “increase in affinity for ADP by DCA (factor)” value ([1]; 0.5 mM DCA) was 3.5, the Kd ([1]; fixed ligand DCA (0.5 mM)) was 2.5 ± 0.2 µM and the nH ([1]; fixed ligand DCA (0.5 mM)) was 1.9 ± 0.1. For the same compound, the Qmax ([1]; fixed ligand DCA (0.5 mM)) was 37 ± 1%, the “Qmax (extrapolated maximal quenching)” value ([1]; no fixed ligand) was 24 ± 1% and the “nH (Hill coefficient)” value ([1]; no fixed ligand) was 1.4 ± 0.1. The Kd ([1]; no fixed ligand, 25 °C) was 8.9 ± 0.1 µM, the “effect on amount of kinase bound to L2” value [2] was “significant decrease” and the Kd [3, 11] was 2 ± 0.1 µM. The nH [3, 11] was 2.2 ± 0.1, the Qmax ([3]; PDHK2-wt, fixed ligand DCA (0.5 mM), quenching caused by the varied ligand) was 39 ± 1% and the “Qmax (extrapolated maximal quenching)” value ([3]; PDHK2-wt, no fixed ligand) was 31 ± 1%. For the same compound, the “nH (Hill coefficient)” value ([3]; PDHK2-wt, no fixed ligand) was 1.5 ± 0.2, the Kd [3, 12] was 10.6 ± 0.5 µM and the “increase in affinity for ADP in the presence of DCA” value ([3]; wild-type PDHK2, 0.5 mM DCA) was “approximately 5 times”. For the same compound, the “effect on L2 binding” value [4] was “did not exert any nonspecific effects”.
For `Nc1ncnc2c1ncn2[C@@H]1O[C@H](COP(=O)(O)OP(=O)(O)OP(=O)(O)O)[C@@H](O)[C@H]1O` [ATP], the “effect on L2 binding” value [5] was “little, if any, effect”, the “decrease in affinity relative to wild-type PDHK2” value [6] was “more than 20 fold” and the “Qmax (extrapolated maximal quenching)” value ([6]; no fixed ligand) was 23 ± 1%. The “nH (Hill coefficient)” value ([6]; no fixed ligand) was 1.5 ± 0.1, the Kd ([6]; no fixed ligand, 25 °C) was 60 ± 1 µM and the “Qmax (extrapolated maximal quenching)” value ([1]; no fixed ligand) was 32 ± 1%. The “nH (Hill coefficient)” value ([1]; no fixed ligand) was 2.4 ± 0.1, the Kd ([1]; no fixed ligand, 25 °C) was 1.7 ± 0.1 µM and the “decrease in affinity relative to wild-type PDHK2” value [7] was greater than 30 fold. For the same compound, the “Qmax (extrapolated maximal quenching)” value ([7]; no fixed ligand) was 29 ± 1%, the “nH (Hill coefficient)” value ([7]; no fixed ligand) was 1.0 ± 0.1 and the Kd ([7]; no fixed ligand, 25 °C) was 80 ± 1 µM. For the same compound, the “effect on amount of kinase bound to L2” value [2] was “significant decrease”, the “Qmax (extrapolated maximal quenching)” value ([3]; PDHK2-wt, no fixed ligand) was 37 ± 1% and the “nH (Hill coefficient)” value ([3]; PDHK2-wt, no fixed ligand) was 1.9 ± 0.1. The Kd [3, 12] was 2.5 ± 0.4 µM and the “effect on L2 binding” value [4] was “did not exert any nonspecific effects”.
`O=C(O)C(Cl)Cl` [DCA, dichloroacetate] was tested, and the IC50 [8] was roughly 690 µM, the Kd ([6]; Kd, fixed ligand ADP (50 μM)) was 249 ± 9 µM and the Kd ([6]; Kd, fixed ligand ADP (500 μM)) was 103 ± 1 µM. The Kd ([6]; Kd, no fixed ligand, 25 °C) was 320 ± 20 µM, the Kd ([1]; Kd, fixed ligand ADP (50 μM)) was 33 ± 1 µM and the Kd ([1]; Kd, no fixed ligand, 25 °C) was 292 ± 10 µM. It also gave a Qmax ([1]; fixed ligand ADP (50 μM)) of 29 ± 1%, a Kd ([7]; Kd, fixed ligand ADP (50 μM)) of 161 ± 4 µM and a Kd ([7]; Kd, fixed ligand ADP (500 μM)) of 59 ± 1 µM. For the same compound, the Kd ([7]; Kd, no fixed ligand, 25 °C) was 312 ± 25 µM, the “effect on kinase activity” value [9] was “neither of the mutant kinases displayed an effect of DCA that would significantly exceed that of sodium acetate; also recorded: did not display an appreciable inhibitory effect; also recorded: no appreciable effect” and the “effect on L2 binding, added alone” value ([2]; DCA 1 mM alone) was “little, if any, influence”. For the same compound, the “effect on L2 binding, in combination with ATP or ADP” value ([2]; DCA 1 mM with 0.5 mM ATP or ADP) was “potentiated the effects of adenine nucleotides” and the Kd ([3]; Kd, PDHK2-wt, no fixed ligand, 25 °C) was 226 ± 7 µM.
For `CC(=O)[O-].[Na+]` [sodium acetate], the “effect on kinase activity” value [10] was “slight decrease in PDHK2 activity”.
